One data set concerns Toxoplasma gondii. As to the kind of experiment: Antiparasitic activity against 2F clone of type 1 Toxoplasma gondii RH tachyzoites expressing beta-galactosidase infected in HFF assessed as reduction in parasite growth measured after 72 hrs by chlorophenol Red-beta-D-galactopyranoside substrate based assay. The data set is classed as functional, organism-based.
Data set [1] is described as follows: Half life in mouse liver microsomes at 10 uM preincubated for 10 mins followed by NADPH addition by LC-MS/MS analysis. The data set is classed as ADME, Microsome. To be noted: for t1/2: microsomes, 10 µM; for half-life at 10 µM: liver microsomes.
Data set [2] in a line: Inhibition of Toxoplasma gondii full-length wild-type C-terminal His-tagged CDPK1 expressed in Escherichia coli BL21(DE3)V2RpAcYc-LIC+LamP using syntide-2 peptide as substrate incubated for 20 to 40 mins by ELISA.
A short description of data set [3]: Half life in human liver microsomes at 10 uM preincubated for 10 mins followed by NADPH addition by LC-MS/MS analysis. The data set is classed as ADME, Microsome. The following applies: for half-life at 10 µM: liver microsomes; for t1/2: microsomes, 10 µM.
Data set [4] can be described thus: Cytotoxicity against human CMEC/D3 cells assessed as cell growth at 20 uM measured after 72 hrs by cellTiter 96 AQueous non-radioactive cell proliferation assay relative to control. The following applies: read-out: Activity. The data set is classed as cell-based, hCMEC/D3.
A short description of data set [5]: Cytotoxicity against human SH-SY5Y cells assessed as cell growth at 20 uM measured after 72 hrs by cellTiter 96 AQueous non-radioactive cell proliferation assay relative to control. It is filed as cell-based. The following applies: read-out: Activity.
Data set [6] is described as follows: Cytotoxicity against HFF monolayers assessed as cell growth measured after 72 hrs by luciferase reporter gene assay relative to control. It is filed as cell-based. The following applies: human, read-out: Activity.

SMILES strings stand for the structures.

Consider `Nc1ncnc2c1c(Oc1cc(C(F)(F)F)ccn1)nn2[C@H]1C[C@@H](O)C1`, for which, in the data set with Toxoplasma gondii, the EC50 turned out to be 281 nM. Also, the t1/2 in data set [1] is 48 min. Also, in data set [2], the midpoint of inhibition, the IC50, lay at 39 nM. The half-life at 10 µM in data set [3] was greater than 145 min.
In the case of `Nc1ncnc2c1c(Oc1cc(C(F)(F)F)ccn1)nn2[C@H]1C[C@H](F)C1`, in the data set on Toxoplasma gondii, the EC50 came out at 189 nM. For the same compound, the values for the t1/2 in data set [1] and in data set [3] were 53 min and 122 min, respectively. The compound further displayed a concentration for half-maximal inhibition (IC50) in data set [2] of 10 nM.
With `Nc1ncnc2c1c(Oc1cccc(C(F)(F)F)c1)nn2[C@H]1C[C@H](O)C1`, the EC50 with Toxoplasma gondii was found to be 482 nM. Further, the t1/2 in data set [1] came out at 22 min; in data set [3], 75 min. Moreover, in data set [2], the midpoint of inhibition, the IC50, lay at 48 nM.
As for `Nc1ncnc2c1c(Oc1cc(O)ccn1)nn2C1CCC(F)(F)CC1`, the EC50 in the data set on Toxoplasma gondii was found to be 248 nM. Moreover, in data set [1], the t1/2 is recorded as 68 min. The midpoint of inhibition in data set [2], the IC50, lay at 10 nM. In addition, the half-life at 10 µM in data set [3] is greater than 145 min.
For `N#Cc1ccnc(Oc2nn([C@H]3C[C@H](O)C3)c3ncnc(N)c23)c1`, the EC50 in the data set with Toxoplasma gondii is 699 nM. The half-life at 10 µM in data set [1] and in data set [3] was greater than 145 min throughout. For the same compound, in data set [2], the midpoint of inhibition, the IC50, lay at 38 nM.
`Nc1ncnc2c1c(Oc1cc(C(F)(F)F)ccn1)nn2[C@H]1CC[C@H](CO)CC1`: the 50% effective concentration (EC50) in the data set with Toxoplasma gondii came to 25 nM. In addition, the t1/2 in data set [1] is listed as 23 min. Also, in data set [2], 10 nM corresponded to half-maximal inhibition (IC50). This compound returned a half-life at 10 µM in data set [3] greater than 145 min.
For `CC(C)(C)n1nc(Oc2cc(O)ccn2)c2c(N)ncnc21`, in the data set on Toxoplasma gondii, the EC50 is 17 nM. The values for the t1/2 in data set [1] and in data set [3] were 37 min and 84 min, respectively. Besides, the IC50 in data set [2] amounted to 14 nM.
Consider `N#Cc1ccnc(Oc2nn(C3CC3)c3ncnc(N)c23)c1`, for which the EC50 in the data set with Toxoplasma gondii worked out at 696 nM. Also, the half-life at 10 µM in data set [1] and in data set [3] was greater than 145 min each time.
On to `CO[C@@]12[C@H](COC(N)=O)C3=C(C(=O)C(C)=C(N)C3=O)N1C[C@@H]1N[C@@H]12` [MITOMYCIN], for which the viability at 72 h, 20 µM in data set [4] was found to be 5%; in data set [5], 0%. Also, in data set [6], the viability at 72 h was 25.8%.
Take `Nc1ncnc2c1c(Oc1cccc(Cl)c1)nn2[C@H]1C[C@H](F)C1`: the EC50 with Toxoplasma gondii is 498 nM. Also, the values for the t1/2 in data set [1] and in data set [3] were 3.9 min and 9.2 min, respectively. Further, in data set [2], half-maximal inhibition (IC50) required 25 nM.
In the case of `Nc1ncnc2c1c(Oc1cc(C(F)(F)F)ccn1)nn2[C@H]1CC[C@@H](O)CC1`, the EC50 in the data set with Toxoplasma gondii was determined as 38 nM. The t1/2 in data set [1] is given as 27 min. Moreover, 19 nM corresponded to half-maximal inhibition in data set [2] (IC50). The compound also gave a half-life at 10 µM in data set [3] greater than 145 min.
Taken in the same sequence, the figures for `Nc1ncnc2c1c(Oc1cc(Cl)ccn1)nn2[C@H]1C[C@@H](O)C1` were 143 nM, 42 min, 18 nM and greater than 145 min.
Taken in the same sequence, the figures for `CO[C@H]1CC[C@H](n2nc(Oc3cc(C(F)(F)F)ccn3)c3c(N)ncnc32)CC1` were 62 nM, 13 min, 38 nM and greater than 145 min.
Consider `Nc1ncnc2c1c(Oc1cc(Cl)ccn1)nn2C1CCC1`, for which the EC50 with Toxoplasma gondii was determined as 27 nM. Further, the values for the t1/2 in data set [1] and in data set [3] were 3.7 min and 20 min, respectively.
Turning to `Nc1ncnc2c1c(Oc1cc(C(F)(F)F)ccn1)nn2[C@H]1CC[C@H](O)CC1`, in the data set with Toxoplasma gondii, the EC50 is 29 nM. Moreover, in data set [1], the t1/2 is on record as 33 min. The IC50 in data set [2] amounted to 16 nM. Moreover, the half-life at 10 µM in data set [3] is greater than 145 min.
Taken in the same sequence, the figures for `Nc1ncnc2c1c(Oc1cc(C(F)(F)F)ccn1)nn2[C@@H]1CC[C@H](N)C1` were 134 nM, 84 min, 42 nM and greater than 145 min.
Take `CO[C@H]1CC[C@@H](n2nc(Oc3cc(C(F)(F)F)ccn3)c3c(N)ncnc32)CC1`: the half-maximal effective concentration (EC50) in the data set with Toxoplasma gondii was 84 nM. Also, the t1/2 was 2 min in data set [1] and 19 min in data set [3]. The IC50 in data set [2] is 45 nM.
On to `Nc1ncnc2c1c(Oc1cc(C(F)(F)F)ccn1)nn2C1CCC(F)(F)CC1`, for which, in the data set with Toxoplasma gondii, the EC50 amounted to 142 nM. In data set [1], this compound yielded a t1/2 of 26 min. The midpoint of inhibition in data set [2], the IC50, lay at 34 nM. This compound gave a half-life at 10 µM in data set [3] greater than 145 min.
Taken in the same sequence, the figures for `Nc1ncnc2c1c(Oc1cc(Cl)ccn1)nn2[C@H]1C[C@H](O)C1` were 114 nM, 40 min, 15 nM and greater than 145 min.
Taken in the same sequence, the figures for `Nc1ncnc2c1c(Oc1cc(Cl)ccn1)nn2C1CCC(F)(F)CC1` were 119 nM, 23 min, 35 nM and greater than 145 min.
With `Nc1ncnc2c1c(Oc1cc(Cl)ccn1)nn2CC1CC1`, the EC50 with Toxoplasma gondii amounted to 71 nM. The t1/2 in data set [1] amounted to 4 min; in data set [3] it was 47 min. For the same compound, the IC50 in data set [2] worked out at 9 nM.
For `Nc1ncnc2c1c(Oc1cc(Cl)ccn1)nn2[C@H]1C[C@H](F)C1`, in that order: 53 nM, 7.6 min, 50 min and 11 nM.
For the compound `Nc1ncnc2c1c(Oc1cc(C(F)(F)F)ccn1)nn2C1CCC1`, the EC50 with Toxoplasma gondii amounted to 95 nM. Besides, the t1/2 in data set [1] is listed as 7.7 min; in data set [3], 61 min.
In the case of `CN(C)C1CCC(n2nc(Oc3cc(C(F)(F)F)ccn3)c3c(N)ncnc32)CC1` (stereo not given), the EC50 in the data set on Toxoplasma gondii stood at 40 nM. The t1/2 in data set [1] is 17 min. In data set [2], 28 nM corresponded to half-maximal inhibition (IC50). The compound also gave a half-life at 10 µM in data set [3] greater than 145 min.
Taken in the same sequence, the figures for `Nc1ncnc2c1c(Oc1cc(C(F)(F)F)ccn1)nn2[C@H]1CC[C@@H](N)CC1` were 71 nM, 55 min, 23 nM and greater than 145 min.
`Nc1ncnc2c1c(Oc1cc(O)ccn1)nn2[C@H]1C[C@H](F)C1`: in the data set with Toxoplasma gondii, the EC50 came out at 205 nM. In addition, the t1/2 came out at 16 min in data set [1] and 62 min in data set [3]. This compound had an IC50 in data set [2] of 8.6 nM.
With `N#Cc1ccnc(Oc2nn([C@H]3C[C@@H](O)C3)c3ncnc(N)c23)c1`, the EC50 in the data set with Toxoplasma gondii was determined as 956 nM. Moreover, the half-life at 10 µM in data set [1] and in data set [3] was greater than 145 min throughout. This compound also came in with an IC50 in data set [2] of 18 nM.
For the compound `Nc1ncnc2c1c(Oc1cc(C(F)(F)F)ccn1)nn2[C@H]1C[C@H](O)C1`, the EC50 in the data set on Toxoplasma gondii was 67 nM. The compound also displayed a t1/2 in data set [1] of 51 min. The compound also displayed an IC50 in data set [2] of 25 nM. In data set [3], this compound gave a half-life at 10 µM greater than 145 min.
Taken in the same sequence, the figures for `Nc1ncnc2c1c(Oc1cc(C(F)(F)F)ccn1)nn2C1CCC(O)C1` (stereo not given) were 58 nM, 18 min, 24 nM and greater than 145 min.
For `Nc1ncnc2c1c(Oc1cc(C(F)(F)F)ccn1)nn2[C@H]1CC[C@@H](CO)CC1`, the EC50 in the data set with Toxoplasma gondii turned out to be 70 nM. In addition, the figures for the t1/2 in data set [1] and in data set [3] were 6.5 min and 96 min, respectively. In data set [2], this compound had a half-inhibitory concentration (IC50) of 15 nM.
As for `CC(C)(C)n1nc(Oc2cc(C#N)ccn2)c2c(N)ncnc21`, in the data set with Toxoplasma gondii, the EC50 is 112 nM. Besides, the t1/2 in data set [1] is 46 min. In addition, half-maximal inhibition in data set [2] (IC50) required 18 nM. This compound displayed a half-life at 10 µM in data set [3] greater than 145 min.

The values are drawn from ChEMBL document CHEMBL4602732, “Optimizing Pyrazolopyrimidine Inhibitors of Calcium Dependent Protein Kinase 1 for Treatment of Acute and Chronic Toxoplasmosis” (J Med Chem, 2020).
